Source: the NIST ThermoML archive (doi:10.1021/je800110r)
Several values for one entry are separate records, joined by “and”; a condition that tells them apart may be missing. Equal entries are not always repeated.

Settings: 293.15 K, Liquid, Vibrating tube method

CCCCCCCCCC [decane]
Settings | mass density
375 kPa | 730.1 kg/m3
394 kPa | 730.1 kg/m3
411 kPa | 730.1 kg/m3
427 kPa | 730.1 kg/m3
448 kPa | 730.1 kg/m3
469 kPa | 730.1 kg/m3
487 kPa | 730.1 kg/m3
510 kPa | 730.2 kg/m3
528 kPa | 730.3 kg/m3
551 kPa | 730.3 kg/m3
571 kPa | 730.3 kg/m3
605 kPa | 730.4 kg/m3
692 kPa | 730.3 kg/m3
760 kPa | 730.4 kg/m3
843 kPa | 730.5 kg/m3
898 kPa | 730.6 kg/m3
949 kPa | 730.5 kg/m3
998 kPa | 730.6 kg/m3
1057 kPa | 730.6 kg/m3
1102 kPa | 730.7 kg/m3
1141 kPa | 730.7 kg/m3
1165 kPa | 730.8 kg/m3
1196 kPa | 730.7 kg/m3
1214 kPa | 730.7 kg/m3
1243 kPa | 730.8 kg/m3
1266 kPa | 730.8 kg/m3
1302 kPa | 730.9 kg/m3
1332 kPa | 730.8 kg/m3
1362 kPa | 730.9 kg/m3
1397 kPa | 730.9 kg/m3
1430 kPa | 730.9 kg/m3
1459 kPa | 730.9 kg/m3
1493 kPa | 731 kg/m3
1535 kPa | 731.1 kg/m3
1567 kPa | 731.1 kg/m3
1623 kPa | 731 kg/m3
1669 kPa | 731.1 kg/m3
1712 kPa | 731.2 kg/m3
1762 kPa | 731.3 kg/m3
1802 kPa | 731.2 kg/m3
1843 kPa | 731.3 kg/m3
1915 kPa | 731.4 kg/m3
1974 kPa | 731.3 kg/m3
2021 kPa | 731.5 kg/m3
2094 kPa | 731.4 kg/m3
2187 kPa | 731.5 kg/m3
2240 kPa | 731.6 kg/m3
2295 kPa | 731.6 kg/m3
2363 kPa | 731.7 kg/m3
2423 kPa | 731.7 kg/m3
2496 kPa | 731.7 kg/m3
2561 kPa | 731.9 kg/m3
2629 kPa | 731.9 kg/m3
2700 kPa | 731.8 kg/m3
2720 kPa | 732.1 kg/m3
2731 kPa | 732 kg/m3
2742 kPa | 732 kg/m3
2755 kPa | 732 kg/m3
2770 kPa | 732 kg/m3
2785 kPa | 731.9 kg/m3
2795 kPa | 732 kg/m3
2813 kPa | 732 kg/m3
2824 kPa | 732 kg/m3
2834 kPa | 732 kg/m3
2851 kPa | 732.1 kg/m3
2884 kPa | 732 kg/m3
2939 kPa | 732.1 kg/m3
3009 kPa | 732.1 kg/m3
3026 kPa | 732.2 kg/m3
3040 kPa | 732.2 kg/m3
3052 kPa | 732.1 kg/m3
3064 kPa | 732.2 kg/m3
3077 kPa | 732.2 kg/m3
3094 kPa | 732.3 kg/m3
3109 kPa | 732.1 kg/m3
3122 kPa | 732.3 kg/m3
3136 kPa | 732.1 kg/m3
3147 kPa | 732.3 kg/m3
3155 kPa | 732.2 kg/m3
3188 kPa | 732.2 kg/m3
3283 kPa | 732.4 kg/m3
3344 kPa | 732.4 kg/m3
3442 kPa | 732.5 kg/m3
3479 kPa | 732.4 kg/m3
3494 kPa | 732.5 kg/m3
3506 kPa | 732.5 kg/m3
3529 kPa | 732.6 kg/m3
3551 kPa | 732.6 kg/m3
3564 kPa | 732.6 kg/m3
3584 kPa | 732.6 kg/m3
3599 kPa | 732.7 kg/m3
3619 kPa | 732.7 kg/m3
3635 kPa | 732.7 kg/m3
3653 kPa | 732.6 kg/m3
3672 kPa | 732.8 kg/m3
3690 kPa | 732.6 kg/m3
3705 kPa | 732.8 kg/m3
3719 kPa | 732.7 kg/m3
3735 kPa | 732.8 kg/m3
3748 kPa | 732.6 kg/m3
3764 kPa | 732.8 kg/m3
3781 kPa | 732.7 kg/m3
3793 kPa | 732.9 kg/m3
3810 kPa | 732.7 kg/m3
3829 kPa | 732.9 kg/m3
3842 kPa | 732.8 kg/m3
3861 kPa | 732.8 kg/m3
3881 kPa | 732.8 kg/m3
3894 kPa | 732.8 kg/m3
3916 kPa | 732.9 kg/m3
3929 kPa | 732.9 kg/m3
3952 kPa | 732.9 kg/m3
3964 kPa | 732.9 kg/m3
3984 kPa | 733 kg/m3
4001 kPa | 733 kg/m3
4012 kPa | 733 kg/m3
4029 kPa | 733 kg/m3
4046 kPa | 733 kg/m3
4060 kPa | 733 kg/m3
4084 kPa | 733 kg/m3
4099 kPa | 733 kg/m3
4117 kPa | 733 kg/m3
4130 kPa | 733.1 kg/m3
4150 kPa | 733.2 kg/m3
4166 kPa | 733 kg/m3
4190 kPa | 733 kg/m3
4211 kPa | 733 kg/m3
4226 kPa | 733.1 kg/m3
4247 kPa | 733.1 kg/m3
4269 kPa | 733.3 kg/m3
4281 kPa | 733.1 kg/m3
4302 kPa | 733.2 kg/m3
4323 kPa | 733.1 kg/m3
4338 kPa | 733.2 kg/m3
4361 kPa | 733.3 kg/m3
4382 kPa | 733.2 kg/m3
4401 kPa | 733.2 kg/m3
4420 kPa | 733.3 kg/m3
4439 kPa | 733.3 kg/m3
4450 kPa | 733.5 kg/m3
4464 kPa | 733.3 kg/m3
4478 kPa | 733.3 kg/m3
4500 kPa | 733.3 kg/m3
4518 kPa | 733.3 kg/m3
4530 kPa | 733.3 kg/m3
4544 kPa | 733.3 kg/m3
4558 kPa | 733.4 kg/m3
4571 kPa | 733.3 kg/m3
4586 kPa | 733.3 kg/m3
4595 kPa | 733.3 kg/m3
4616 kPa | 733.5 kg/m3
4637 kPa | 733.4 kg/m3
4652 kPa | 733.4 kg/m3
4671 kPa | 733.3 kg/m3
4685 kPa | 733.6 kg/m3
4705 kPa | 733.4 kg/m3
4728 kPa | 733.4 kg/m3
4742 kPa | 733.5 kg/m3
4760 kPa | 733.5 kg/m3
4773 kPa | 733.5 kg/m3
4795 kPa | 733.7 kg/m3
4810 kPa | 733.6 kg/m3
4831 kPa | 733.5 kg/m3
4849 kPa | 733.6 kg/m3
4877 kPa | 733.5 kg/m3
4901 kPa | 733.6 kg/m3
4914 kPa | 733.7 kg/m3
4937 kPa | 733.6 kg/m3
4953 kPa | 733.7 kg/m3
4976 kPa | 733.7 kg/m3
4996 kPa | 733.6 kg/m3
5014 kPa | 733.8 kg/m3
5029 kPa | 733.7 kg/m3
5053 kPa | 733.7 kg/m3
5076 kPa | 733.8 kg/m3
5091 kPa | 733.8 kg/m3
5103 kPa | 733.9 kg/m3
5127 kPa | 733.8 kg/m3
5148 kPa | 733.7 kg/m3
5166 kPa | 733.9 kg/m3
5187 kPa | 733.8 kg/m3
5202 kPa | 733.8 kg/m3
5220 kPa | 733.9 kg/m3
5234 kPa | 733.8 kg/m3
5248 kPa | 733.9 kg/m3
5264 kPa | 733.9 kg/m3
5278 kPa | 733.9 kg/m3
5297 kPa | 733.8 kg/m3
5299 kPa | 733.9 kg/m3
5304 kPa | 733.9 kg/m3
5315 kPa | 733.9 kg/m3
5319 kPa | 733.9 kg/m3
5329 kPa | 733.9 kg/m3
5335 kPa | 734 kg/m3
5346 kPa | 734 kg/m3
5352 kPa | 734 kg/m3
5362 kPa | 733.9 kg/m3
5375 kPa | 734 kg/m3
5393 kPa | 733.9 kg/m3
5395 kPa | 734 kg/m3
5409 kPa | 733.9 kg/m3
5422 kPa | 734 kg/m3
5424 kPa | 734.1 kg/m3
5440 kPa | 734 kg/m3
5459 kPa | 734 kg/m3
5475 kPa | 734.1 kg/m3
5492 kPa | 734 kg/m3
5508 kPa | 734 kg/m3
5522 kPa | 734 kg/m3
5541 kPa | 734.1 kg/m3
5556 kPa | 734.1 kg/m3
5570 kPa | 734.1 kg/m3
5592 kPa | 734.1 kg/m3
5612 kPa | 734.2 kg/m3
5626 kPa | 734.2 kg/m3
5643 kPa | 734.2 kg/m3
5656 kPa | 734.2 kg/m3
5676 kPa | 734.3 kg/m3
5696 kPa | 734.2 kg/m3
5714 kPa | 734.1 kg/m3
5734 kPa | 734.3 kg/m3
5753 kPa | 734.2 kg/m3
5771 kPa | 734.3 kg/m3
5792 kPa | 734.3 kg/m3
5808 kPa | 734.4 kg/m3
5824 kPa | 734.4 kg/m3
5839 kPa | 734.4 kg/m3
5858 kPa | 734.4 kg/m3
5880 kPa | 734.4 kg/m3
5902 kPa | 734.3 kg/m3
5918 kPa | 734.4 kg/m3
5937 kPa | 734.3 kg/m3
5957 kPa | 734.4 kg/m3
5977 kPa | 734.5 kg/m3
5992 kPa | 734.4 kg/m3
6012 kPa | 734.5 kg/m3
6035 kPa | 734.5 kg/m3
6050 kPa | 734.6 kg/m3
6077 kPa | 734.6 kg/m3
6097 kPa | 734.6 kg/m3
6112 kPa | 734.6 kg/m3
6135 kPa | 734.5 kg/m3
6161 kPa | 734.6 kg/m3
6198 kPa | 734.7 kg/m3
6243 kPa | 734.6 kg/m3
6254 kPa | 734.6 kg/m3
6257 kPa | 734.6 kg/m3
6259 kPa | 734.7 kg/m3
6262 kPa | 734.6 kg/m3
6265 kPa | 734.6 kg/m3
6266 kPa | 734.7 kg/m3 and 734.6 kg/m3
6267 kPa | 734.6 kg/m3
6268 kPa | 734.6 kg/m3
6278 kPa | 734.7 kg/m3
6299 kPa | 734.6 kg/m3
6320 kPa | 734.6 kg/m3
6344 kPa | 734.7 kg/m3
6362 kPa | 734.7 kg/m3
6383 kPa | 734.7 kg/m3
6411 kPa | 734.9 kg/m3
6436 kPa | 734.7 kg/m3
6451 kPa | 734.7 kg/m3
6476 kPa | 734.8 kg/m3
6502 kPa | 734.9 kg/m3
6521 kPa | 734.8 kg/m3
6550 kPa | 734.8 kg/m3
6573 kPa | 734.8 kg/m3
6596 kPa | 734.8 kg/m3
6622 kPa | 734.9 kg/m3
6642 kPa | 734.8 kg/m3
6665 kPa | 735 kg/m3
6692 kPa | 734.9 kg/m3
6725 kPa | 735 kg/m3
